Experiment [1] addresses T1, AT1 Q257A receptor (Rattus norvegicus, UniProt P25095, Q257A).
T1 construct: expressed in transfected cells; host or cells: COS7
T1 sequence (P25095 1-359 Q257A): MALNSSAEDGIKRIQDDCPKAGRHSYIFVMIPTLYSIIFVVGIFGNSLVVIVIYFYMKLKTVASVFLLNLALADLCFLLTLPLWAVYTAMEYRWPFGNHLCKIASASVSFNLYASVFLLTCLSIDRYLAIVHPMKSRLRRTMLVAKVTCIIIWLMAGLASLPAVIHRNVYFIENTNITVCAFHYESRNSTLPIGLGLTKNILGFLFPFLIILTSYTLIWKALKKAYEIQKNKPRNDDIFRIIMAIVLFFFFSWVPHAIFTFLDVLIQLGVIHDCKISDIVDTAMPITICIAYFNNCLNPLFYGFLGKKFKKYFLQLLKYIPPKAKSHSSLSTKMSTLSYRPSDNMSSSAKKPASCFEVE
Nature of the experiment: IP production assay in COS7 cells expressing AT1-Q257A receptor. The following applies: 1 µM ligands or 0.1 µM Ang II, 30 min, n = 5, vs. (-). It counts as cell-based. On the procedure: (§1) The synthetic rat AT1 receptor gene, which was cloned in the shuttle expression vector pMT-2, was used for expression and mutagenesis, as described previously. […] In the experiments, cells were grown without a cell-growth supplement. To express the AT1 receptor protein, 10 µg of purified plasmid DNA per 10^7 cells was used in the transfection. Wild-type and mutated AT1 receptors were transiently transfected into cells using Lipofectamine 2000 liposomal reagent (Roche Applied Science, Penzberg, Germany). Cells were plated and grown and were 70–90% confluent at the time of transfection. We incubated plasmid DNA (10 µg)–lipid (10 µL) complexes for 5 min at room temperature and added and incubated the complexes with cells for 24 h. We then analyzed the parameters in transfected cells. […] Transfected cells that had been cultured for 48–72 h were harvested. Cell membranes were prepared using the nitrogen Parr bomb disruption or freeze–thaw methods.
(§2) Ligand (such as agonist or antagonist)-induced IP production through the AT1 receptor in transfected COS7 cells transiently expressing the AT1 receptor was measured to evaluate cell signaling as a second messenger for controlling blood pressure, since the increases in the intracellular Ca^2+ concentration were the result of IP accumulation, which indicated vasoconstriction. As a surrogate model with higher levels of AT1 receptor expression, COS7 cells are suitable for IP measurement because it is easy to detect differences in IP production. Cells were labeled for 24 h with [^3H]-myoinositol at 37 °C in DMEM containing 10% FBS. Next, the cells were washed with buffer 3 times and incubated with a medium containing 10 mM LiCl for 20 min; 0.1 µM Ang II or 1 µM ligands were added and incubation was continued for another 30 min at 37 °C. After incubation, the medium was removed, and total soluble IP was extracted from the cells using the perchloric acid extraction method, as described previously. Cells were plated at a field density of 5 × 10^3 cells/cm^2 in 60 mm dishes and cultured in a fresh growth medium at 37 °C in a DMEM 5% CO2 incubator. […] The culture medium was changed 48 h after transfection and 1.5 mL of 1 μCi/mL of [^3H]-myoinositol was added to each 60-mm dish at 37 °C in DMEM containing 10% FBS. After labeling, the cells were washed with buffer 3 times and incubated with a medium containing 10 mM LiCl for 20 min. The indicated concentration of ligands was added and incubation was continued for an additional 30 min at 37 °C. After incubation, the medium was removed, and total soluble IP was extracted from the cells using the perchloric acid extraction method. Total IP production was expressed as the sum of radioactivity, as described previously.

The target in experiment [2] is T2, AT1 L112A receptor (Rattus norvegicus, UniProt P25095, L112A).
T2 construct: expressed in transfected cells; host or cells: COS7
T2 sequence (P25095 1-359 L112A): T1 sequence (P25095 1-359 Q257A) with L112A, A257Q
Nature of the experiment: Immunoblotting of ERK 1/2 activation in COS7 cells overexpressing AT1-L112A receptor. It counts as cell-based. The note with it: 1 µM ligands or 0.1 µM Ang II, 10 min, n = 5, vs. (-). The procedure: as §1
(§3) In in vitro studies, ERK 1/2 activation by 1 µM ligands or 0.1 µM Ang II incubated for 10 min was measured using COS7 cells that overexpressed AT1 wild-type and mutant receptors. ERK activity was measured in cells maintained for 18 h in DMEM containing 0.1% serum. At the end of the stimulation, the culture medium was removed by aspiration, the cells were washed with ice-cold phosphate-buffered saline, and the dishes were frozen in liquid nitrogen. The cells were scraped using a scraper after melting, and the scraped cells were transferred to a tube. We homogenized the cells in lysis buffer plus protease inhibitors and determined the protein concentration using the bicinchoninic acid method. […] We fractionated total proteins using sodium dodecyl sulfate polyacrylamide gel electrophoresis; we then transferred the proteins to a Hybond nitrocellulose membrane and blocked the blotted membranes with 10% bovine serum albumin in tris-buffered saline buffer (50 mM Tris–HCl pH 7.6, 150 mM NaCl) for 1 h at room temperature. […] An enhanced chemiluminescent substrate system (Amersham, Buckinghamshire, UK) was used. The signal was independently quantified by digital image analysis (ImageJ, National Institutes of Health, Bethesda, MD, USA).

For experiment [3], the target named is T3, AT1 wild-type receptor (Rattus norvegicus, UniProt P25095).
T3 construct: expressed in transfected cells; host or cells: COS7
T3 sequence (P25095 1-359): T1 sequence (P25095 1-359 Q257A) with A257Q
Nature of the experiment: IP production assay in COS7 cells expressing AT1 wild-type receptor. It is filed as cell-based. The note with it: AT1 wild-type receptor, COS7 cells; 1 µM ligands or 0.1 µM Ang II, 30 min; n = 5; vs. (-). On the procedure:
as §1, §2

Experiment [4] has as its target T1, AT1 Q257A receptor. Description: Immunoblotting of ERK 1/2 activation in COS7 cells overexpressing AT1-Q257A receptor. It counts as cell-based. The note with it: 1 µM ligands or 0.1 µM Ang II, 10 min, n = 5, vs. (-). The procedure:
as §1, with “Cell membranes were prepared using the nitrogen Parr bomb disruption or freeze–thaw methods.” left out
In in vitro studies, ERK 1/2 activation by 1 µM ligands or 0.1 µM Ang II incubated for 10 min was measured using COS7 cells that overexpressed AT1 wild-type and mutant receptors. ERK activity was measured in cells maintained for 18 h in DMEM containing 0.1% serum. […] We homogenized the cells in lysis buffer plus protease inhibitors and determined the protein concentration using the bicinchoninic acid method. […] The signal was independently quantified by digital image analysis (ImageJ, National Institutes of Health, Bethesda, MD, USA).

The target of experiment [5] is T3, AT1 wild-type receptor. Nature of the experiment: Immunoblotting of ERK 1/2 activation in COS7 cells overexpressing AT1 wild-type receptor. The following applies: AT1 wild-type receptor, COS7 cells; 1 µM ligands or 0.1 µM Ang II, 10 min; n = 5; vs. (-). It is filed as cell-based. On the procedure:
as §1, §3
(A western blot detects proteins with antibodies after separation by electrophoresis.)

Experiment [6] deals with T2, AT1 L112A receptor. Nature of the experiment: IP production assay in COS7 cells expressing AT1-L112A receptor. The note with it: 1 µM ligands or 0.1 µM Ang II, 30 min, n = 5, vs. (-). It counts as cell-based. On the procedure: as §1, §2
Experiment [7] deals with T1, AT1 Q257A receptor. Description: Competition binding study, 125I-[Sar1,Ile8]Ang II, AT1 Q257A receptor. The following applies: competition with 125I-[Sar1,Ile8]Ang II, n = 3, mean ± standard error, read-out: Binding affinity (Kd). From the text: (§4) We mutated four amino acids in transmembrane (TM) III, VI, and VII in the AT1 receptor (L112A, Q257A, Y292A, and N295A receptors). We determined the mutation sites of the AT1 receptor according to ARB, which produced olmesartan derivatives with different interactions and functions toward the AT1 receptor, as previously reported by Zhang et al., since the additional 4-hydroxybenzyl groups of R781253 and R794847 were predicted to extend to a sub-pocket on the bottom of the AT1 receptor ligand-binding pocket consisting of Leu^112 and Gln^257. In addition, since the biased ligand TRV027 induced changes near the NPxxY motif in TM domain 7 that are related to receptor activation, Tyr^292 and Asn^295 in the AT1 receptor were mutated.
(§5) The synthetic rat AT1 receptor gene, which was cloned in the shuttle expression vector pMT-2, was used for expression and mutagenesis, as described previously. COS7 cells (No. CRL-1651, ATCC, Manassas, VA, USA) were cultured in 10% fetal bovine serum (FBS) and penicillin- and streptomycin-supplemented Dulbecco’s modified Eagle’s essential medium (PS-DMEM) in 5% CO2 at 37 °C. In the experiments, cells were grown without a cell-growth supplement. To express the AT1 receptor protein, 10 µg of purified plasmid DNA per 10^7 cells was used in the transfection. Wild-type and mutated AT1 receptors were transiently transfected into cells using Lipofectamine 2000 liposomal reagent (Roche Applied Science, Penzberg, Germany). Cells were plated and grown and were 70–90% confluent at the time of transfection. We incubated plasmid DNA (10 µg)–lipid (10 µL) complexes for 5 min at room temperature and added and incubated the complexes with cells for 24 h. We then analyzed the parameters in transfected cells. Cell viability was >95% according to trypan blue exclusion analysis in the control experiments. Transfected cells that had been cultured for 48–72 h were harvested. Cell membranes were prepared using the nitrogen Parr bomb disruption or freeze–thaw methods.
(§6) The Kd (nM) values of receptor binding were determined with ^125I-[Sar^1, Ile^8]AngII-binding experiments under equilibrium conditions. Binding kinetics were determined following the methods described in the literature. We carried out binding by using ^125I-[Sar^1, Ile^8] AngII (2200 Ci/mmol) and an increasing concentration (10^−11–10^−5 M) of each unlabeled compound. Nonspecific binding of ^125I-[Sar^1, Ile^8] Ang II was determined in the presence of a high concentration (10^−6 M) of unlabeled [Sar^1, Ile^8]. Next, the incubation mixture was separated by vacuum filtration through Whatman GF/C glass filters (Disposable Filter Funnels Grade GF/C, GE Healthcare), and presoaked with 0.1% polyethylenimine. The filter was washed with 3 mL of ice-cold stop buffer (25 mM Tris–HCl, pH 7.4, 1 mM MgCl2). The radioactivity trapped on the filters was quantified using an automatic γ-counter. The percentage (%) of specific binding of ^125I-[Sar^1, Ile^8]Ang II was calculated using the following formula: 100 × (% total binding of ^125I-[Sar^1, Ile^8]Ang II—nonspecific binding of ^125I-[Sar^1, Ile^8]Ang II)/(% total binding of ^125I-[Sar^1, Ile^8]Ang II).

For experiment [8], the target named is T2, AT1 L112A receptor. Nature of the experiment: Competition binding study, 125I-[Sar1,Ile8]Ang II, AT1 L112A receptor. The following applies: competition with 125I-[Sar1,Ile8]Ang II, n = 3, mean ± standard error, read-out: Binding affinity (Kd).
Text: as §4
(§7) The synthetic rat AT1 receptor gene, which was cloned in the shuttle expression vector pMT-2, was used for expression and mutagenesis, as described previously. COS7 cells (No. CRL-1651, ATCC, Manassas, VA, USA) were cultured in 10% fetal bovine serum (FBS) and penicillin- and streptomycin-supplemented Dulbecco’s modified Eagle’s essential medium (PS-DMEM) in 5% CO2 at 37 °C. In the experiments, cells were grown without a cell-growth supplement. To express the AT1 receptor protein, 10 µg of purified plasmid DNA per 10^7 cells was used in the transfection. […] We then analyzed the parameters in transfected cells. […]
(§8) The Kd (nM) values of receptor binding were determined with ^125I-[Sar^1, Ile^8]AngII-binding experiments under equilibrium conditions. Binding kinetics were determined following the methods described in the literature. […] Ang II was determined in the presence of a high concentration (10^−6 M) of unlabeled [Sar^1, Ile^8]. […] The radioactivity trapped on the filters was quantified using an automatic γ-counter. The percentage (%) of specific binding of ^125I-[Sar^1, Ile^8]Ang II was calculated using the following formula: 100 × (% total binding of ^125I-[Sar^1, Ile^8]Ang II—nonspecific binding of ^125I-[Sar^1, Ile^8]Ang II)/(% total binding of ^125I-[Sar^1, Ile^8]Ang II).

The next experiment has as its target T4, AT1 N295A receptor (Rattus norvegicus, UniProt P25095, N295A).
T4 construct: expressed in transfected cells; host or cells: COS7
T4 sequence (P25095 1-359 N295A): T1 sequence (P25095 1-359 Q257A) with A257Q, N295A
Nature of the experiment: Competition binding study, 125I-[Sar1,Ile8]Ang II, AT1 N295A receptor. The following applies: competition with 125I-[Sar1,Ile8]Ang II, n = 3, mean ± standard error, read-out: Binding affinity (Kd).
Text: as §4, §5, §6

Experiment [9] has as its target T3, AT1 wild-type receptor. Nature of the experiment: Competition binding study, 125I-[Sar1,Ile8]Ang II, AT1 wild-type receptor. The following applies: competition with 125I-[Sar1,Ile8]Ang II, n = 3, mean ± standard error, read-out: Binding affinity (Kd). On the procedure: as §7, §8
For a further experiment, the target named is T5, AT1 Y292A receptor (Rattus norvegicus, UniProt P25095, Y292A).
T5 construct: expressed in transfected cells; host or cells: COS7
T5 sequence (P25095 1-359 Y292A): T1 sequence (P25095 1-359 Q257A) with A257Q, Y292A
Nature of the experiment: Competition binding study, 125I-[Sar1,Ile8]Ang II, AT1 Y292A receptor. The note with it: competition with 125I-[Sar1,Ile8]Ang II, n = 3, mean ± standard error, read-out: Binding affinity (Kd).
Text: as §4, §5, §6

Numbering of substitutions follows the chain as printed.

Take “angiotensin II [Ang II, reference compound]”: the “Effect on IP production” value on AT1 Q257A receptor [1], at AT1 wild-type receptor [3] and at AT1 L112A receptor [6] was “significantly increased IP production” each time. For the same compound, the ERK1/2 activation result at AT1 L112A receptor [2], on AT1 Q257A receptor [4] and at AT1 wild-type receptor [5] was “significantly activated ERK1/2” throughout.

Regarding `CC[C@H](C)[C@H](NC(=O)[C@@H]1CCCN1C(=O)[C@H](Cc1c[nH]cn1)NC(=O)[C@@H](NC(=O)[C@H](Cc1ccc(O)cc1)NC(=O)[C@@H](NC(=O)[C@H](CCCN=C(N)N)NC(=O)CNC)C(C)C)[C@@H](C)CC)C(=O)O` [[Sar^1,Ile^8]Ang II, [Sar^1, Ile^8]Ang II, reference compound], the dissociation constant (Kd) at AT1 Q257A receptor [7] worked out at 3.3 ± 1.5 nM; on AT1 L112A receptor [8] it was 1.3 ± 0.3 nM; on AT1 N295A receptor, 7 ± 2 nM; on AT1 wild-type receptor [9], 0.8 ± 0.4 nM; on AT1 Y292A receptor it was 2.1 ± 0.9 nM.

The term Kd denotes a measure of binding affinity in units of concentration.

The record behind these values is paper PMC10216478, “Development of a Non-Peptide Angiotensin II Type 1 Receptor Ligand by Structural Modification of Olmesartan as a Biased Agonist” (Biomedicines, 2023).
